Where two headings read alike, the source gives them in different places.
Assays:
IL-1alpha = assay: LPS-stimulated interleukin release from human mononuclear cells, ELISA (IL-1alpha); assay type: cell-based; settings: 10 µmol/l, 20-22 h, read-out: % Hemmung der Interleukin-Freisetzung
Protocol: (§1) 5. Freisetzung von Interleukinen (insbesondere IL-1β) aus humanen mononuklearen Zellen
(§2) Die erfindungsgemäßen Verbindungen haben eine starke Hemmwirkung auf die Freisetzung von Interleukinen aus Humanzellen. Dies ist von großer pharmakologischer Bedeutung weil Interleukine die unerwünschte Degradation der Knorpelmatrix auslösen können.
(§3) 10 ml Humanblut, stabilisiert mit 1 ml 3,8 %iger Natriumcitrat-Lösung, werden mit 10 ml PM16 (Serva, Heidelberg) verdünnt und mit 15 ml Lymphoprep (Dr. Molter GmbH, Heidelberg) unterschichtet. Die Proben werden 40 Minuten bei 400 xg (1600 rpm Minifuge 2, Heraeus, Osterode) zentrifugiert (Raumtemperatur). Die mononuklearen Zellen sind als weißer Ring an der Grenze Lymphoprep/Plasma sichtbar. Dieser Ring wird mit einer Spritze vorsichtig entnommen, mit dem gleichen Volumen PM16 verdünnt und 10 Minuten bei 400 xg zentrifugiert. Der Niederschlag wird mit ∼ 10 ml RPMI 1640 (+ 300 mg/l L-Glutamin, Gibco, Eggenstein) gewaschen. Nach Resuspendieren der Zellen in ∼ 1 ml RPMI 1640 (+ 300 mg/l L-Glutamin, + 25 mM HEPES, + 100 µg/ml Streptomycin, + 100 µg/ml Penicillin) wird die Zelldichte mit einem Coulter Counter JT (Coulter Diagnostics) bestimmt und auf 5 * 10⁶/ml eingestellt. Die Zellen bestehen typischerweise aus 90 % Lymphozyten und 10 % Monozyten.
(§4) 230 µl mononukleare Zellen werden mit 10 µl Testsubstanz (10 µM in DMSO/Wasser 1/10) und 10 µl Lipopolysaccharide (500 µg gelöst in 1 ml Dimethylsulfoxid (DMSO) und vor Testbeginn 1/10 mit Wasser verdünnt, von Salmonella abortus equi, Sigma, Deisenhofen) 20-22 Stunden bei 37°C; 5 % CO₂ inkubiert. Die Proben werden in einem Eisbad auf 0°C abgekühlt und in einer Sigma-Zentrifuge zentrifugiert (2 Minuten; 2000 rpm). Aliquote des Überstandes werden mit einem kommerziell erhältlichen ELISA (Biermann, Bad Nauheim) bestimmt.

Rattenlebermikrosomen = assay: Inhibition of microsomal lipid peroxidation (malondialdehyde/thiobarbituric acid); assay type: biochemical, Ratte; settings: rat liver microsomes, FeSO₄ start, 10 min 37°C; read-out: IC50 Mikrosomale Lipidperoxidation
Protocol: 4. Hemmung der Mikrosomalen Lipidperoxidation […]
Alle Schritte werden bei 0°C durchgeführt. Die Leber einer Ratte wird, um alles Hämoglobin zu entfernen, mit 0,9 % NaCl-Lösung gründlich gespült. Die grob zerkleinerte Leber wird dann in 10 mM Tris/HCl pH 7,4; 250 mM Saccharose (10 ml Puffer/g Leber) gepottert. Zunächst wird 5 Minuten bei 600xg zentrifugiert. Der Überstand wird dann 10 min bei 12000xg zentrifugiert und wird mit festem CaCl₂ (117,6 mg/100 ml) auf eine Konzentration von 8 mM eingestellt. Durch Zentrifugieren bei 25000 xg (15 min) wird ein Mikrosomenniederschlag gewonnen. Dieser Niederschlag wird im gleichen Volumen Puffer (10 mM Tris/HCl pH 7,4; 150 mM KCl) rehomogenisiert und erneut 15 min bei 25000 xg zentrifugiert.
Ein Testansatz besteht aus 20 µl Mikrosomen (100 mg/ml), vgl. oben, gelöst in Puffer (250 mM Tris/HCl pH 6,6, 750 mM KCl), 10 µl 50 mM MgCl₂, 10 µl 200 mM Isocitronensäure, 10 µl 4mM NADP (3,028 mg/ml Wasser), 10 µl 25 mM Niacinamid, 10 µl Isocitratdehydrogenase (1:100 verdünnt) und 20 µl Wasser oder Testsubstanz. Gestartet wird die Reaktion mit 10 µl 0,25 mM FeSO₄. Die Inkubation dauert 10 Minuten und erfolgt bei 37°C. Gestoppt wird mit 500 µl eiskalter 20 %iger Trichloressigsäure. Entstandenes Malondialdehyd wird durch Zugabe von 500 µl 0,67 %iger Thiobarbitursäure und 30 Minuten Inkubation bei 90°C in eine pinkfarbene Verbindung überführt, die bei 532 nm gemessen wird. Die Extinktion im Kontrollansatz ohne Prüfpräparat wird auf 0 % Hemmung gesetzt, während das völlige Verschwinden des Signals 100 % Hemmung bedeutet.

Chondrozyten [1] = assay: IL-1-induced chondrocytic chondrolysis in chondrocyte agarose culture, 35S-sulfate incorporation; settings: agarose cell culture with 5 u/ml human rec. IL-1 alpha; factor relative to IL-1 treated control
TNF-alpha = assay: LPS-stimulated interleukin release from human mononuclear cells, ELISA (TNF-alpha); assay type: cell-based; settings: 10 µmol/l, 20-22 h, read-out: % Hemmung der Interleukin-Freisetzung
Protocol: as §1, §2, §3, §4

Chondrozyten [2] = assay: Stimulation of cartilage matrix (proteoglycan) synthesis in chondrocyte agarose culture, 35S-sulfate incorporation; assay type: cell-based, Rinder; settings: for fold induction at 10 µM: Chondrocyte, read-out: Stimulationsfaktor der Proteoglykansynthese
Source text: 1. Wirksamkeit in der Synthese-Stimulierung von Knorpel-Matrix, Prüfung in der Chondrozyten-Kultur
Zellen: Den Fußgelenken frisch geschlachteter Rinder werden der hyaline Knorpel entnommen, mit Pronase (Boehringer Mannheim) und Collagenase (Sigma), die native Matrix enzymatisch abgebaut, und die Chondrozyten in 1 %iger "low melting Agarose" in 24er Multiwell-Schalen in einer Zelldichte von 4 x 10⁶ pro well ausplattiert.
Medium: Komplettes Medium enthält HAM's F12 (Biochrom KG, Berlin) und 10 % foetales Kälberserum (Boehringer Mannheim), die Testsubstanz wird in Medium gelöst, üblicherweise in einer Konzentration von 10⁻⁵ M zugegeben und bei jedem Mediumwechsel erneut zugefügt.
Versuchsdurchführung: Die Behandlung erfolgt vom dritten bis zehnten Tag der Primärkultur, am 9. […] Die dissoziative Extraktion der Proteoglykane aus der Agarose-Schicht wird mit 8M Guanidinium-Hydrochlorid und beigefügten Proteinase-Inhibitoren (Sigma) unter Schütteln bei 4° C über 24 h durchgeführt. Der Überstand wird nach Zentrifugation über eine PD 10 ®Sephadex G 25 Säule in freies und inkorporiertes Sulfat getrennt, dessen Aktivität nach Aliquotierung im β-Szintillationscounter gemessen wird.
Auswertung: Der Parameter für die Matrixproduktion der Chondrozyten ist die Menge synthetisierter Proteoglykane, gemessen als Sulfatinkorporation in cpm. Aus vier Wells pro Gruppe wird der Mittelwert errechnet. Dieser wird durch den Mittelwert der unbehandelten Kontrolle dividiert, und ergibt somit einen Stimulationsfaktor, der bei Stimulation der Matrixsynthese größer 1 ist, bei Hemmung derselben durch Substanzwirkung kleiner 1, und bei unveränderter Matrixsynthese gleich 1 ist.
Als Standard wird Diacerein eingesetzt, das unter dem Markennamen "Artodar" von der Firma Proter bzw. […] Tabelle II

IL-1beta = assay: LPS-stimulated interleukin release from human mononuclear cells, ELISA (IL-1beta); assay type: cell-based; settings: 10 µmol/l, 20-22 h, read-out: % Hemmung der Interleukin-Freisetzung
Protocol: as §1, §2, §3, §4

[3] = system: Matrix Metalloproteasen (MMP); assay: Inhibition of matrix metalloproteases from supernatant of PMA-induced synoviocytes, fluorogenic substrate; assay type: biochemical, Kaninchen
Source text: 3. Inhibierung von Matrix Metalloproteasen (MMP)
Die erfindungsgemäßen Verbindungen zeigten deutliche inhibitorische Wirkungen auf proteolytische Enzyme, die sogenannten Matrix Metalloproteasen. Dies ist von großer Bedeutung, weil diese dem Fachmann an sich bekannten Enzyme am proteolytischen Abbau der intakten Knorpelmatrix entscheidend beteiligt sind.
Kaninchen Synoviocyten (HIG-82; ATCC, Rockville, Maryland, USA) werden in Nährmedium HAM'S F12 (Sigma, Deisenhofen, Deutschland, Katalog Nr. N-6760) mit 10 % fötalem Rinder Serum (Sigma, Deisenhofen, Deutschland, Katalog Nr. F-2442), zusammen mit Penicillin 100 U/ml sowie Streptomycin 100 µg/ml, kultiviert. Nach konfluentem Zellwachstum wird die MMP Expression in serumfreiem HAM'S F12 durch Zugabe von 0,3 µmol/l Phorbol-12-Myristat-13-Acetat induziert. Nach 20 h Inkubationszeit bei 37°C wird der Überstand abgenommen.
Der Überstand wird mit Trypsin (5 µg/ml) aktiviert. Nach 15 Minuten (min) bei 37°C wird die Aktivierung durch Zugabe von 1 mmol/l Phenylmethylsulfonylfluorid (PMSF) beendet und für weitere 10 min nachinkubiert. Das Gesamtvolumen des Ansatzes beträgt 210 µl.
Messung der MMP Aktivität (Lit.: C.G. Knight et al.; FEBS Lett. 296, 263 (1992)):
20 µl des obengenannten Überstandes werden 1:10 verdünnt, und mit 240 µl Puffer (0,1 Tris/HCl pH 7,5; 0,1 M NaCl; 0,01 M CaCl₂; 0,05 % Brij) gemischt. Die Prüfsubstanz wird in der angegebenen Konzentration (s. Tabelle) zugegeben. Nach einer Inkubationszeit von 15 min wird die Reaktion durch Zugabe von 20 µmol/l Fluoreszenz-Substanz ((7-Methoxycoumarin-4-yl)acetyl-pro-Leu-Gly-Leu-[3-(2',4'-dinitrophenyl)-L-2,3-diaminopropionyl]-Ala-Arg-NH₂; Bachem, Heidelberg, Deutschland, Kat. Nr.: M-1895) gestartet. Die Reaktion wird nach 30 min durch Zugabe von 10 mmol/l EDTA beendet. Das Gesamtvolumen des Ansatzes beträgt 320 µl. Als Meßparameter dienen die Fluoreszenzintensitäten bei λex: 328 nm und […]. Um die mögliche Eigenfluoreszens der Prüfsubstanzen zu berücksichtigen, werden die Fluoreszenzintensitäten von Parallel-Messungen ohne Substrat von den Messwerten mit Substrat abgezogen. Alle Operationen erfolgen bei 20°C. Im Kontrollexperiment ohne Hemmstoff wird die Fluoreszenz entsprechen 0 % Hemmung gesetzt, während völlige Auslöschung der Fluoreszenz 100 % Hemmung bedeutet.

[4] = agarose cell culture, test substance usually 10⁻⁵ M, mean sulfate incorporation divided by untreated control (>1 = stimulation)

Row | Compound | IC50 (Rattenlebermikrosomen) [µM] | Stimulationsfaktor der Proteoglykansynthese (Chondrozyten [1]) | inhibition at 10 µM (IL-1beta) [%] | Hemmung der MMP ([3]; 30 µM) [%] | further results
1 | COP(=O)(OC)C(NC1CCCCC1)c1cc(C(C)(C)C)c(O)c(C(C)(C)C)c1 (stereo not shown) [Beispiel 7] | 2.4 | – | – | – | inhibition at 10 µM (IL-1alpha): 21%
2 | COP(=O)(OC)C(Nc1ccc2c(c1)OCO2)c1cc(C(C)(C)C)c(O)c(C(C)(C)C)c1 (stereo not shown) [Beispiel 60] | 0.71 | 1,4 | – | – | inhibition at 10 µM (TNF-alpha): 24%
3 | CCCCOP(=O)(OCCCC)C(Nc1ccc(Cl)cc1)c1cc(C(C)(C)C)c(O)c(C(C)(C)C)c1 (stereo not shown) [Beispiel 45] | 6.15 | 1,2 | – | – | inhibition at 10 µM (IL-1alpha): 22%
4 | CCOP(=O)(OCC)C(Nc1ccc2c(c1)OCO2)c1cc(C(C)(C)C)c(O)c(C(C)(C)C)c1 (stereo not shown) [Beispiel 61] | – | 1,3 | 24 | – | fold induction at 10 µM (Chondrozyten [2]): 2.9
5 | 1-(4-Chloranilino)-1-(3,5-di-tert.butyl-4-hydroxy-phenyl)-methanphosphonsäurediethylester [Beispiel 1] | 2.43 | 1,5 | – | – | Stimulationsfaktor der Proteoglykansynthese (Chondrozyten [2]; agarose cell culture, test substance usually 10⁻⁵ M, mean sulfate incorporation divided by untreated control (>1 = stimulation), 10 µM): 1,4
6 | CCCOP(=O)(OCCC)C(Nc1ccc2c(c1)OCO2)c1cc(C(C)(C)C)c(O)c(C(C)(C)C)c1 (stereo not shown) [Beispiel 62] | 0.24 | 1,2 | 46 | 68 | Hemmung der MMP ([3]; 10 µM): 23%; Hemmung der MMP ([3]; 100 µM): 83%; fold induction at 10 µM (Chondrozyten [2]; [4]): 1.2
7 | CCOP(=O)(OCC)C(c1cc(C(C)(C)C)c(O)c(C(C)(C)C)c1)N1CCOCC1 (stereo not shown) [Beispiel 23] | 2.45 | – | – | – | inhibition at 10 µM (IL-1alpha): 75%; inhibition at 10 µM (TNF-alpha): 70%
8 | CCOP(=O)(OCC)C(Nc1ccc(NC(c2cc(C(C)(C)C)c(O)c(C(C)(C)C)c2)P(=O)(OCC)OCC)cc1)c1cc(C(C)(C)C)c(O)c(C(C)(C)C)c1 (stereo not shown) [Beispiel 74] | 1.25 | 3,8 | – | 47 | Hemmung der MMP ([3]; 10 µM): 20%; Hemmung der MMP ([3]; 50 µM): 74%
9 | CCOP(=O)(OCC)C(Nc1ccc(C=CC(=O)OC)cc1)c1cc(C(C)(C)C)c(O)c(C(C)(C)C)c1 (stereo not shown) [Beispiel 67] | 2.22 | 1,9 | 26 | – | –
10 | CCOP(C)(=O)C(Nc1ccc2c(c1)OCO2)c1cc(C(C)(C)C)c(O)c(C(C)(C)C)c1 (stereo not shown) [Beispiel 59] | – | – | – | 43 | Hemmung der MMP ([3]; 10 µM): 19%
11 | CCOP(=O)(OCC)C(c1cc(C(C)(C)C)c(O)c(C(C)(C)C)c1)N(C)c1ccccc1 (stereo not shown) [Beispiel 53] | 2.03 | 1,7 | 53 | 11 | Hemmung der MMP ([3]; 100 µM): 25%
12 | CCCCNC(c1cc(C(C)(C)C)c(O)c(C(C)(C)C)c1)P(=O)(OCC)OCC (stereo not shown) [Beispiel 6] | 2.25 | 1,4 | – | – | fold induction at 10 µM (Chondrozyten [2]): 1.2
13 | CCCCOP(=O)(OCCCC)C(Nc1ccc(Cl)c(Cl)c1)c1cc(C(C)(C)C)c(O)c(C(C)(C)C)c1 (stereo not shown) [Beispiel 49] | > 10 | 1,5 | – | – | fold induction at 10 µM (Chondrozyten [2]; [4]): 1.2
14 | CCCCOP(=O)(OCCCC)C(Nc1ccc2c(c1)OCO2)c1cc(C(C)(C)C)c(O)c(C(C)(C)C)c1 (stereo not shown) [Beispiel 63] | 0.24 | 1,5 | 31 | 60 | Hemmung der MMP ([3]; 10 µM): 26%
15 | CC(C)(C)c1cc(C(Nc2ccc3c(c2)OCO3)[PH](=O)O)cc(C(C)(C)C)c1O (stereo not shown) [Beispiel 3] | 0.79 | 1,3 | – | 20 | Hemmung der MMP ([3]; 10 µM): 3%; Hemmung der MMP ([3]; 100 µM): 83%
16 | CCOP(=O)(OCC)C(Nc1ccccn1)c1cc(C(C)(C)C)c(O)c(C(C)(C)C)c1 (stereo not shown) [Beispiel 79] | 2.3 | 1,2 | – | – | fold induction at 10 µM (Chondrozyten [2]): 1.6
17 | CCCCOP(=O)(OCCCC)C(NCc1ccc2c(c1)OCO2)c1cc(C(C)(C)C)c(O)c(C(C)(C)C)c1 (stereo not shown) [Beispiel 31] | 2.18 | 1,7 | 32 | – | –
18 | CCOP(=O)(OCC)C(Nc1ncccn1)c1cc(C(C)(C)C)c(O)c(C(C)(C)C)c1 (stereo not shown) [Beispiel 80] | 2.9 | 2,4 | – | – | inhibition at 10 µM (TNF-alpha): 21%

Reference: EP0703239A1, “Aminomethylphosphonic and aminomethylphosphinic acids derivatives and their use in the treatment of degenerative articular diseases” (priority 1994, dated 1996)
